“And” between values parts separate entries of the source, which are not always exact repeats. Identical values can stand only once. Toxic doses and inconclusive results are not listed.
Test system: L1210 leukemia ip in BDF1 mice, survival T/C
Assay: NCI In Vivo Anticancer Drug Screen. Data for tumor model L1210 Leukemia (intraperitoneal) in B6D2F1 (BDF1) mice
Details: endpoint: mean survival time, higher = longer survival
Procedure, shortened: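 Ratio derived from survival: compound-dosed mice over vehicle-dosed mice, all bearing a transplantable tumor.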

[1] = dose: 100.0 mg/kg/injection, schedule: Q01DX001 (ip), vehicle: carboxymethylcellulose (CMC)
[2] = dose: 100.0 mg/kg/injection, schedule: Q01DX009 (ip), vehicle: carboxymethylcellulose (CMC)
[3] = dose: 100.0 mg/kg/injection, schedule: Q04DX002 (ip), vehicle: carboxymethylcellulose (CMC)
[4] = dose: 100.0 mg/kg/injection, schedule: Q04DX003 (ip), vehicle: carboxymethylcellulose (CMC)
[5] = dose: 200.0 mg/kg/injection, schedule: Q01DX001 (ip), vehicle: carboxymethylcellulose (CMC)
[6] = dose: 200.0 mg/kg/injection, schedule: Q01DX009 (ip), vehicle: carboxymethylcellulose (CMC)
[7] = dose: 200.0 mg/kg/injection, schedule: Q04DX002 (ip), vehicle: carboxymethylcellulose (CMC)
[8] = dose: 200.0 mg/kg/injection, schedule: Q04DX003 (ip), vehicle: carboxymethylcellulose (CMC)
[9] = dose: 400.0 mg/kg/injection, schedule: Q01DX001 (ip), vehicle: carboxymethylcellulose (CMC)
[10] = dose: 400.0 mg/kg/injection, schedule: Q01DX009 (ip), vehicle: carboxymethylcellulose (CMC)
[11] = dose: 400.0 mg/kg/injection, schedule: Q04DX002 (ip), vehicle: carboxymethylcellulose (CMC)
[12] = dose: 400.0 mg/kg/injection, schedule: Q04DX003 (ip), vehicle: carboxymethylcellulose (CMC)
[13] = dose: 100.0 mg/kg/injection, schedule: Q01DX009 (ip), vehicle: saline
[14] = dose: 200.0 mg/kg/injection, schedule: Q01DX009 (ip), vehicle: saline
[15] = dose: 100.0 mg/kg/injection, schedule: Q04DX003 (ip), vehicle: saline with Tween-80
[16] = dose: 200.0 mg/kg/injection, schedule: Q04DX003 (ip), vehicle: saline with Tween-80
[17] = dose: 400.0 mg/kg/injection, schedule: Q04DX003 (ip), vehicle: saline with Tween-80
[18] = dose: 100.0 mg/kg/injection, schedule: Q01DX009 (ip), vehicle: saline with Tween-80
[19] = dose: 100.0 mg/kg/injection, schedule: Q01DX001 (ip), vehicle: saline

In the case of `O=S(=O)(CCCc1ccccc1)CCS(=O)(=O)CCCc1ccccc1`, the T/C (dose: 50.0 mg/kg/injection, schedule: Q01DX009 (ip), vehicle: acetone) is reported as 98 % of control, the T/C (dose: 100.0 mg/kg/injection, schedule: Q01DX009 (ip), vehicle: acetone) is reported as 98 % of control and the T/C (dose: 200.0 mg/kg/injection, schedule: Q01DX009 (ip), vehicle: acetone) is reported as 98 % of control.
`O=C(Nc1ccc(Oc2ccc(NC(=O)Nc3cccc(F)c3)cc2)cc1)Nc1cccc(F)c1` was tested, and the T/C (dose: 25.0 mg/kg/injection, schedule: Q01DX009 (ip), vehicle: carboxymethylcellulose (CMC)) was 89 % of control and 90 % of control, the T/C (dose: 50.0 mg/kg/injection, schedule: Q01DX009 (ip), vehicle: carboxymethylcellulose (CMC)) was 86 % of control and 87 % of control and the T/C [1] was 93 % of control and 94 % of control. The T/C [2] was 100 % of control and 106 % of control and 86 % of control, the T/C [3] was 97 % of control and 99 % of control and the T/C [4] was 94 % of control and 105 % of control. The T/C [5] was 96 % of control and 105 % of control, the T/C [6] was 99 % of control and the T/C [7] was 95 % of control and 108 % of control. The T/C [8] was 94 % of control and 92 % of control, the T/C [9] was 96 % of control and 91 % of control and the T/C [10] was 93 % of control. For the same compound, the T/C [11] was 95 % of control and 89 % of control and the T/C [12] was 91 % of control and 92 % of control.
With `CCOC(=O)NNC(=O)Nc1ccc(Cl)c([N+](=O)[O-])c1` the T/C [13] was 104 % of control and the T/C [14] was 93 % of control.
In the case of `O=C(O)CCC(C(=O)O)N1C(=O)c2ccccc2C1=O` (configuration not stated), the T/C [15] is reported as 97 % of control, the T/C [16] is reported as 102 % of control and the T/C [17] is reported as 105 % of control.
For `C=CC(=O)OCC(C)([N+](=O)[O-])[N+](=O)[O-]`, the T/C (dose: 50.0 mg/kg/injection, schedule: Q01DX009 (ip), vehicle: saline with Tween-80) was 103 % of control, the T/C [18] was 97 % of control and the T/C [15] was 103 % of control. The T/C [16] was 96 % of control.
`COC1OC(COC(c2ccccc2)(c2ccccc2)c2ccccc2)C2SC12` (configuration not stated) was tested, and the T/C (dose: 50.0 mg/kg/injection, schedule: Q01DX001 (ip), vehicle: carboxymethylcellulose (CMC)) was 102 % of control, the T/C [1] was 107 % of control and the T/C [5] was 100 % of control. For the same compound, the T/C [9] was 96 % of control.
For `Nc1nc(N)c2cc(CNc3ccc(Cl)c(C(=O)NC(CC(=O)O)C(=O)O)c3)cnc2n1` (configuration not stated), the T/C [13] was 95 % of control, the T/C (dose: 100.0 mg/kg/injection, schedule: Q04DX003 (ip), vehicle: saline) was 106 % of control and the T/C [14] was 94 % of control. For the same compound, the T/C (dose: 200.0 mg/kg/injection, schedule: Q04DX003 (ip), vehicle: saline) was 93 % of control, the T/C (dose: 400.0 mg/kg/injection, schedule: Q01DX009 (ip), vehicle: saline) was 89 % of control and the T/C (dose: 400.0 mg/kg/injection, schedule: Q04DX003 (ip), vehicle: saline) was 97 % of control.
`O=C(/C=C\c1ccccc1)Nc1c(Cl)cc(Cl)cc1Cl` was tested, and the T/C (dose: 100.0 mg/kg/injection, schedule: Q04DX002 (ip), vehicle: Klucel (hydroxypropylcellulose) (HPC)) was 91 % of control, the T/C (dose: 200.0 mg/kg/injection, schedule: Q04DX002 (ip), vehicle: Klucel (hydroxypropylcellulose) (HPC)) was 107 % of control and the T/C (dose: 400.0 mg/kg/injection, schedule: Q04DX002 (ip), vehicle: Klucel (hydroxypropylcellulose) (HPC)) was 95 % of control.
With `Clc1ccc(-c2nc3ccccc3cc2N2CCOCC2)cc1` the T/C (dose: 100.0 mg/kg/injection, schedule: Q04DX003 (ip), vehicle: Klucel (hydroxypropylcellulose) (HPC)) was 108 % of control, the T/C (dose: 200.0 mg/kg/injection, schedule: Q04DX003 (ip), vehicle: Klucel (hydroxypropylcellulose) (HPC)) was 103 % of control and the T/C (dose: 400.0 mg/kg/injection, schedule: Q04DX003 (ip), vehicle: Klucel (hydroxypropylcellulose) (HPC)) was 100 % of control.
For `CC(C)(N)C(=O)O`, the T/C (dose: 100.0 mg/kg/injection, schedule: Q04DX003 (ip), vehicle: saline sonified) was 101 % of control, the T/C (dose: 200.0 mg/kg/injection, schedule: Q04DX003 (ip), vehicle: saline sonified) was 98 % of control and the T/C (dose: 400.0 mg/kg/injection, schedule: Q04DX003 (ip), vehicle: saline sonified) was 98 % of control.
`N#CC(C#N)=CNc1ccc(S(N)(=O)=O)cc1` was tested, and the T/C (dose: 75.0 mg/kg/injection, schedule: Q01DX001 (ip), vehicle: saline) was 101 % of control, the T/C (dose: 150.0 mg/kg/injection, schedule: Q01DX001 (ip), vehicle: saline) was 95 % of control and the T/C (dose: 300.0 mg/kg/injection, schedule: Q01DX001 (ip), vehicle: saline) was 96 % of control.
In the case of `CC(=O)Oc1ccc(OC(C)=O)c2c1C(=O)C=CC2=O`, the T/C (dose: 0.78 mg/kg/injection, schedule: Q04DX002 (ip), vehicle: alcohol) is reported as 110 % of control, the T/C (dose: 1.56 mg/kg/injection, schedule: Q04DX002 (ip), vehicle: alcohol) is reported as 100 % of control and the T/C (dose: 3.12 mg/kg/injection, schedule: Q04DX002 (ip), vehicle: alcohol) is reported as 106 % of control. The T/C (dose: 6.25 mg/kg/injection, schedule: Q04DX002 (ip), vehicle: alcohol) was 93 % of control and the T/C [19] was 107 % of control.
With `c1ccc([P+](C[P+](c2ccccc2)(c2ccccc2)c2ccccc2)(c2ccccc2)c2ccccc2)cc1` the T/C (dose: 0.19 mg/kg/injection, schedule: Q01DX009 (ip), vehicle: Klucel (hydroxypropylcellulose) (HPC)) was 98 % of control, the T/C (dose: 0.39 mg/kg/injection, schedule: Q01DX009 (ip), vehicle: Klucel (hydroxypropylcellulose) (HPC)) was 175 % of control and the T/C (dose: 0.78 mg/kg/injection, schedule: Q01DX009 (ip), vehicle: Klucel (hydroxypropylcellulose) (HPC)) was 102 % of control. The T/C (dose: 1.56 mg/kg/injection, schedule: Q01DX009 (ip), vehicle: Klucel (hydroxypropylcellulose) (HPC)) was 97 % of control, the T/C (dose: 1.56 mg/kg/injection, schedule: Q04DX003 (ip), vehicle: Klucel (hydroxypropylcellulose) (HPC)) was 93 % of control and the T/C (dose: 3.12 mg/kg/injection, schedule: Q01DX009 (ip), vehicle: Klucel (hydroxypropylcellulose) (HPC)) was 97 % of control. The T/C (dose: 3.12 mg/kg/injection, schedule: Q04DX003 (ip), vehicle: Klucel (hydroxypropylcellulose) (HPC)) was 92 % of control and the T/C (dose: 6.25 mg/kg/injection, schedule: Q04DX003 (ip), vehicle: Klucel (hydroxypropylcellulose) (HPC)) was 90 % of control.
In the case of `CN(C)c1ccc(C(C#N)OC(=O)c2ccccc2)cc1` (configuration not stated), the T/C [1] is reported as 89 % of control, the T/C [2] is reported as 93 % of control and the T/C [3] is reported as 97 % of control. The T/C [4] was 100 % of control, the T/C [5] was 94 % of control and the T/C [6] was 98 % of control and 90 % of control. The T/C [7] was 97 % of control, the T/C [8] was 89 % of control and the T/C [9] was 91 % of control. For the same compound, the T/C [10] was 98 % of control and 86 % of control, the T/C [11] was 94 % of control and the T/C [12] was 94 % of control.
For `NC(=O)NCCC(=O)O`, the T/C (dose: 100.0 mg/kg/injection, schedule: Q04DX002 (ip), vehicle: saline) was 115 % of control, the T/C (dose: 200.0 mg/kg/injection, schedule: Q04DX002 (ip), vehicle: saline) was 112 % of control and the T/C (dose: 400.0 mg/kg/injection, schedule: Q04DX002 (ip), vehicle: saline) was 101 % of control.
`O=C1NC(c2ccccc2)(c2ccccc2)C(=O)N1CCN(CCCl)CCCl` was tested, and the T/C (dose: 12.5 mg/kg/injection, schedule: Q01DX009 (ip), vehicle: saline with Tween-80) was 116 % of control, the T/C (dose: 25.0 mg/kg/injection, schedule: Q01DX009 (ip), vehicle: saline with Tween-80) was 102 % of control and the T/C (dose: 50.0 mg/kg/injection, schedule: Q04DX003 (ip), vehicle: saline with Tween-80) was 105 % of control. The T/C [18] was 121 % of control and the T/C [15] was 116 % of control and 121 % of control.
`CCOC(=O)/C=C(/N)c1c(C)[nH]c2ccccc12` was tested, and the T/C [19] was 102 % of control, the T/C (dose: 200.0 mg/kg/injection, schedule: Q01DX001 (ip), vehicle: saline) was 113 % of control and the T/C (dose: 400.0 mg/kg/injection, schedule: Q01DX001 (ip), vehicle: saline) was 87 % of control.
`CCC1(C)CC(=O)N(C/C=C(\C)CCC=C(C)C)C(=O)C1` was tested, and the T/C [15] was 100 % of control, the T/C [16] was 105 % of control and the T/C [17] was 97 % of control.

Source: PubChem BioAssay AID248 (DTP/NCI, 2004)
